Results as given in US20130317046A1, “USE OF A DPP-4 INHIBITOR IN AUTOIMMUNE DIABETES, PARTICULARLY LADA” (BOEHRINGER INGELHEIM INTERNATIONAL GMBH, priority 2012, published 2013).
Marks after values point to notes of the source that are not given here.

Experiments:
[1] = 2 h postprandial blood glucose excursions in patients with type 2 diabetes; type: in vivo, human; details: Day 1, doses ≧2.5 mg
[2] = test system: β-cell function; assay: Fasting C-peptide (β-cell function) in GAD65+ LADA patients, two year double-blind randomized study linagliptin versus glimepiride on metformin; type: in vivo, human; parameters: Follow-up C-peptide / ΔC-peptide / Baseline C-peptide: unit not given here; details: for Follow-up C-peptide / ΔC-peptide / Baseline C-peptide: fasting, GAD+ patients; for Follow-up C-peptide: 52 weeks; for Follow-up C-peptide / Baseline C-peptide: lina 5 mg/d, glim 1-4 mg/d, on metformin
Protocol: (§1) β-Cell function in latent autoimmune diabetes in adults (LADA) treated with linagliptin versus glimepiride: exploratory results from a two year double-blind, randomized, controlled study:
(§2) It is compared the impact of treatment with the DPP4-inhibitor linagliptin (lina) 5 mg/d and the sulphonylurea glimepiride (glim) 1-4 mg/d on β-cell function in patients retrospectively identified with LADA who had insufficient glycaemic control despite metformin therapy in a two year study.
(§3) Patients were classified as LADA if one or more of the autoantibodies assessed (GAD65, ICA, IA-2A, IAA) were present at baseline or any on-treatment visit. GAD was assessed using RIA methodology (cut-off 0.05 [sensitivity 82%/specificity 98.89% in the Diabetes Autoantibody Standardization Program 2010]).
(§4) The study cohort comprised 1519 patients (16 countries), with assumed common T2D. The prevalence of LADA was 7.8% (n=118). GAD65 was the most prevalent autoantibody (6.5%) whereas ICA (0.3%), IA-2A (1.2%) and IAA (0.2%) were rare. Proportion of patients with 2 positive antibodies was 0.4%. Baseline characteristics in GAD65+LADA patients treated with lina (n=65) or glim (n=53) were fairly well balanced (respective age 59/63 yrs, BMI 30.3/31.7 kg/m2 and diabetes duration >5 years 62%/59%).
(§5) HbA1c reductions were of similar magnitude in the groups.

[3] = HbA1c in GAD65+ LADA patients, two year double-blind randomized study linagliptin versus glimepiride on metformin; type: in vivo, human; details: GAD+ patients
Protocol: as §1, §2, §3, §4, §5

[4] = Safety and tolerability in people with type 2 diabetes
[5] = Pharmacokinetics of BI 1356 after multiple oral doses once daily for 12 days in patients with type 2 diabetes; details: for feT,ss: steady state (Day 12); for feT,ss / fe0-24: gMean; for fe0-24: fraction excreted in urine
[6] = change from baseline at 28 weeks
[7] = change from baseline at 52 weeks
[8] = change from baseline at 104 weeks

SMILES	Follow-up C-peptide [2]	ΔC-peptide [2, 6]	ΔC-peptide [2, 7]	ΔC-peptide [2, 8]	Baseline C-peptide ([2]; subset followed to 28 weeks)	Baseline C-peptide ([2]; subset followed to 52 weeks)	Baseline C-peptide ([2]; subset followed to 104 weeks)	ΔHbA1c [3, 6]	ΔHbA1c [3, 7]	ΔHbA1c [3, 8]	Baseline HbA1c ([3]; subset followed to 28 weeks)	Baseline HbA1c ([3]; subset followed to 52 weeks)	Baseline HbA1c ([3]; subset followed to 104 weeks)	other results
CC#CCn1c(N2CCC[C@@H](N)C2)nc2c1c(=O)n(Cc1nc(C)c3ccccc3n1)c(=O)n2C [BI 1356, 1-[(4-methyl-quinazolin-2-yl)methyl]-3-methyl-7-(2-butyn-1-yl)-8-(3-(R)-amino-piperidin-1-yl)-xanthine]	978	+96***##	+143***##	+202***	821	835	944	−0.25%	−0.49%	−0.41%	7.62%	7.50%	7.40%	decrease in 2 h postprandial blood glucose excursions [1]: 80%; preservation of C-peptide ([2]; GAD65+ patients, over a 2 yr trajectory, versus glim): preserved C-peptide significantly better than those treated with glim; safety and tolerability [4]: placebo-like safety and tolerability; feT,ss ([5]; 1 mg oral once daily): 3.34%; fe0-24 ([5]; 2.5 mg oral once daily): 0.139%; feT,ss ([5]; 2.5 mg oral once daily): 3.06%; fe0-24 ([5]; 5 mg oral once daily): 0.453%; feT,ss ([5]; 5 mg oral once daily): 6.27%; fe0-24 ([5]; 10 mg oral once daily): 0.919%; feT,ss ([5]; 10 mg oral once daily): 3.22%; mean accumulation ratio RA,AUC ([5]; doses above 1 mg): ≤ 1.4; form and route of excretion ([5]; human, in vivo): primarily excreted unchanged via the bile; excreted via the kidney ([5]; therapeutic oral dose levels): < 7 % of the administered oral dose; main route of excretion ([5]; therapeutic oral dose levels): mainly excreted via the liver
CCC1=C(C)CN(C(=O)NCCc2ccc(S(=O)(=O)NC(=O)N[C@H]3CC[C@H](C)CC3)cc2)C1=O [Glim, glimepiride, reference compound]	1246	−105	−179	−29	1326	1425	1374	−0.75%	−0.52%	−0.49%	7.75%	7.46%	7.40%	–
